Test system: chicken embryo fibroblasts (CEF's) tissue model
Assay: Ring system: isometric force and dynamic stiffness of fibroblast populated matrices (FPM)
Format: cell-based
Settings: for contractile force produced in response to serum activation: cytochalasin D 2 μM
Description: Chicken embryo fibroblasts (CEF's) isolated from 11-day chicken embryos (Spafas Inc., Preston, Conn.) were maintained in Dulbecco's modified Eagle's medium (DMEM) supplemented with 10% fetal calf serum (FCS), penicillin at 50 units/ml, and streptomycin at 50 microgram/milliliter. The CEF's used to make tissue models were passaged once or twice from primary cultures. Monomeric collagen solubilized in 0.02 M acetic acid (Upstate Biotechnology Inc., Lake Placid, N.Y.) was neutralized at 4° C. with 0.1 N NaOH and mixed with concentrated DMEM stock to yield a final normal DMEM concentration. The fibroblasts suspended by trypsin (FIG. 1a) were mixed with the collagen solution (FIG. 1b), the cell suspension was poured into Teflon casting wells (FIG. 1c), and the wells were incubated at 37° C. with 5% CO2 (FIG. 1d). The collagen polymerized within 15-30 min and fibroblasts were captured within the hydrated collagen gel. The collagen gel formed a ring (3 mm thick, 3 cm diameter) between the inner wall of the cylindrical well and the central mandrel. While in culture the cells compressed this ring, reducing its volume about 10-fold (thickness 200-300 μm). The ring could then be removed from the mandrel (FIG. 1e and FIG. 1f) and mounted on the measuring instrument (FIG. 1g) as described below.
Mechanical measurements were carried out using a ring system. After two days of incubation (serum starvation for the final 12-16 hours), the mandrel was removed from the casting well and the tissue model-ring was removed gently from the mandrel. As shown in FIG. 1 the tissue model-ring was looped over the triangular hook connected to an isometric force transducer (Model 52-9545, Harvard Apparatus, South Natick, Mass.) by a fine, flexible gold chain. The ring was also looped over a horizontal bar connected to a sliding element moveable vertically and linearly by a stepper motor (P/N 1-19-3400 24V DC 1.8° step size, Haward Industry, St. Louis, Mo.) controlled by a micro-stepping driver (IM483 Intelligent Motion Systems) to measure stress and dynamic modulus of the sample. The micro-stepping driver was controlled by a personal computer with software which enabled the stepper motor to achieve smooth motion. An analog-to-digital signal converter (CIO-DAS1602/16, Computer Boards, Inc., Mansfield, Mass.) attached to the computer translated the voltage signal from the isometric force transducer to a digital signal for recording on a data recorder. The stepper motor controlled the stretching of the tissue. Force exerted by or on the tissue was transmitted to the force transducer by the gold chain.
The tissue sample was submerged in 50 ml Hepes-buffered DMEM (pH 7.4) in a thermo-regulated organ bath (Harvard Apparatus, South Natick, Mass.) maintained at 37° C. The two horizontal bars over which the ring was looped were initially set to hold the ring at its original contour length (corresponding to the circumference of the mandrel).
Typically, for stiffness measurements, the tissue model is subjected to a sequence of stretch cycles. In each cycle the tissue model is slowly stretched from 0 to 20% over 30 minutes and the tissue model is then returned at the same rate to its original length by actuation of the stepper motor. The resulting increase in contractile force during the first stretch is substantially larger than the contractile force in subsequent stretches (FIG. 2a). For each stretch after the first stretch there is a further small decrease in maximum contractile force, but the decrease becomes negligible after sufficient pre-stretching. The tissue models produced contractile force in response to the activation of fibroblasts by serum. This contractile force was abolished by disrupting the actin cytoskeleton with cytochalasin D (2 μM) (FIG. 2b).
The amplitude of the force response divided by the stretching amplitude corresponded to the dynamic stiffness of the sample subjected to a preselected sinusoidal length change. […]

C=C1[C@@H](C)[C@H]2[C@H](Cc3ccccc3)NC(=O)[C@]23[C@H](OC(C)=O)/C=C/[C@@](C)(O)C(=O)[C@@H](C)C/C=C/[C@H]3[C@@H]1O [CD, cytochalasin D]
concentration range over which tension and stiffness decrease: almost three decades
lowest concentration at which force and dynamic stiffness were significantly diminished: 2 nM
dynamic stiffness (CD 2 μM): nearly reached its minimum value
isometric force (CD 2 μM): reduced almost to zero
contractile force produced in response to serum activation (listed as Cytochalasin D): abolition of active contractility
contractile force produced in response to serum activation (listed as cytochalasin D): abolished
effect on viscosity of the tissues (phase angle δ) (data not shown): relatively minor effect
IC50 (two day-old tissue models, serum starved 16 hours, serial additions, read-out: concentration needed to reduce the force and dynamic stiffness by 50%): ~250 nM

From patent US8227240B2, “Systems for screening pharmaceutical chemicals” (The Washington University, priority 2001, dated 2012)
